Source: patent US9765105B2, “Macrolide compound” (Pulike Biological Engineering, Inc., priority 2013, dated 2017)

How the values were obtained:
Test in all cases: in vitro susceptibility, MIC by mini broth dilution
Type in all cases: cell-based
[1] = system: Streptococcus equines CVCC556; details: strain CVCC556
How it was run: (§1)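 Bacteria were revived from −20° C stocks and streaked twice on solid medium, each time grown 20 h at 35° C. Compounds were double-diluted in DMSO across 11 wells and tested in two parallel rows. The bacterial suspension was diluted 1:200 with liquid medium before MIC determination by mini broth dilution.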

Haemophilus parasuis = system: Haemophilus parasuis
How it was run: as §1

[2] = system: Actinobacillus pleuropneumoniae CVCC262; details: strain CVCC262
How it was run: as §1

[3] = system: Pasteurella multocida CVCC399; details: strain CVCC399
How it was run: as §1

[4] = system: Staphylococcus aureus CVCC26003; details: strain CVCC26003
How it was run: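 MICs were determined by mini broth dilution under NCCLS standards in CAMHB, using revived S. aureus CVCC26003 subcultured 20 h at 35° C. Compounds were two-fold serially diluted in DMSO across 11 wells, with duplicate rows. Bacterial suspension was diluted 1:200 in medium before inoculation.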

| MIC values, Streptococcus equines CVCC556 [1] [ug/mi] | MIC values, Haemophilus parasuis (Haemophilus parasuis) [ug/mi] | MIC values, Actinobacillus pleuropneumoniae CVCC262 [2] [ug/mi] | MIC values, Pasteurella multocida CVCC399 [3] [ug/mi] | MIC values, Staphylococcus aureus CVCC26003 [4] [ug/mi] | Structure (SMILES) |
| --- | --- | --- | --- | --- | --- |
| 0.25 | 0.25 | 0.25 | 0.5 | 0.5 | CCCN1C[C@H](C)[C@@H](O)[C@](C)(O)[C@@H](CC)OC(=O)[C@H](C)[C@@H](O[C@H]2C[C@@](C)(OC)[C@](O)(CNC(C)CCCN(CC)CC)[C@H](C)O2)[C@H](C)[C@@H](O[C@@H]2O[C@H](C)C[C@H](N(C)C)[C@H]2O)[C@](C)(O)C[C@H]1C (stereo partly drawn) [syzx-159] |
| 0.25 | 0.25 | 0.25 | 0.5 | 0.25 | CCCN1C[C@H](C)[C@@H](O)[C@](C)(O)[C@@H](CC)OC(=O)[C@H](C)[C@@H](O[C@H]2C[C@@](C)(OC)[C@](O)(CNCCc3ccc(S(N)(=O)=O)cc3)[C@H](C)O2)[C@H](C)[C@@H](O[C@@H]2O[C@H](C)C[C@H](N(C)C)[C@H]2O)[C@](C)(O)C[C@H]1C [syzx-161] |
| 0.25 | 0.25 | 0.25 | 1 | 0.25 | C#CC=C(C)NC[C@]1(O)[C@H](C)O[C@@H](O[C@H]2[C@H](C)[C@@H](O[C@@H]3O[C@H](C)C[C@H](N(C)C)[C@H]3O)[C@](C)(O)C[C@@H](C)N(CCC)C[C@H](C)[C@@H](O)[C@](C)(O)[C@@H](CC)OC(=O)[C@@H]2C)C[C@@]1(C)OC [syzx-162] |
| 0.25 | 0.25 | 0.25 | 1 | 0.25 | CCCC(C)NC[C@]1(O)[C@H](C)O[C@@H](O[C@H]2[C@H](C)[C@@H](O[C@@H]3O[C@H](C)C[C@H](N(C)C)[C@H]3O)[C@](C)(O)C[C@@H](C)N(CCC)C[C@H](C)[C@@H](O)[C@](C)(O)[C@@H](CC)OC(=O)[C@@H]2C)C[C@@]1(C)OC (stereo partly drawn) [syzx-163] |
| 0.5 | 0.25 | 0.25 | 2 | 0.25 | CCCN1C[C@H](C)[C@@H](O)[C@](C)(O)[C@@H](CC)OC(=O)[C@H](C)[C@@H](O[C@H]2C[C@@](C)(OC)[C@](O)(CNCCc3ccncc3)[C@H](C)O2)[C@H](C)[C@@H](O[C@@H]2O[C@H](C)C[C@H](N(C)C)[C@H]2O)[C@](C)(O)C[C@H]1C [syzx-164] |
| 0.25 | 0.25 | 0.25 | 1 | 0.25 | CCCN1C[C@H](C)[C@@H](O)[C@](C)(O)[C@@H](CC)OC(=O)[C@H](C)[C@@H](O[C@H]2C[C@@](C)(OC)[C@](O)(CNCc3cnc(C)cn3)[C@H](C)O2)[C@H](C)[C@@H](O[C@@H]2O[C@H](C)C[C@H](N(C)C)[C@H]2O)[C@](C)(O)C[C@H]1C [syzx-165] |
| 0.25 | 2 | 2 | 4 | 2 | CCCN1C[C@H](C)[C@@H](O)[C@](C)(O)[C@@H](CC)OC(=O)[C@H](C)[C@@H](O[C@H]2C[C@@](C)(OC)[C@](O)(CNCC3CCCCC3)[C@H](C)O2)[C@H](C)[C@@H](O[C@@H]2O[C@H](C)C[C@H](N(C)C)[C@H]2O)[C@](C)(O)C[C@H]1C [syzx-167] |
| 0.25 | 0.25 | 0.25 | 1 | 0.25 | CCCN1C[C@H](C)[C@@H](O)[C@](C)(O)[C@@H](CC)OC(=O)[C@H](C)[C@@H](O[C@H]2C[C@@](C)(OC)[C@](O)(CNc3ccccc3F)[C@H](C)O2)[C@H](C)[C@@H](O[C@@H]2O[C@H](C)C[C@H](N(C)C)[C@H]2O)[C@](C)(O)C[C@H]1C [syzx-168] |
| 0.25 | 0.25 | 0.25 | 0.5 | 0.25 | CCCN1C[C@H](C)[C@@H](O)[C@](C)(O)[C@@H](CC)OC(=O)[C@H](C)[C@@H](O[C@H]2C[C@@](C)(OC)[C@](O)(CNCCCN3CCOCC3)[C@H](C)O2)[C@H](C)[C@@H](O[C@@H]2O[C@H](C)C[C@H](N(C)C)[C@H]2O)[C@](C)(O)C[C@H]1C [syzx-169] |
| 0.25 | 1 | 1 | 4 | 2 | CCCN1CC(C)C(O)C(C)(O)C(CC)OC(=O)C(C)C(OC2CC(C)(OC)C(O)(CNNc3ccccc3)C(C)O2)C(C)C(OC2OC(C)CC(N(C)C)C2O)C(C)(O)CC1C (stereo not drawn) [syzx-173] |
| 0.25 | 2 | 4 | 8 | 4 | CCCN1C[C@H](C)[C@@H](O)[C@](C)(O)[C@@H](CC)OC(=O)[C@H](C)[C@@H](O[C@H]2C[C@@](C)(OC)[C@](O)(CNCCc3c[nH]c4ccccc34)[C@H](C)O2)[C@H](C)[C@@H](O[C@@H]2O[C@H](C)C[C@H](N(C)C)[C@H]2O)[C@](C)(O)C[C@H]1C [syzx-174] |
| 0.5 | 0.25 | 0.25 | 0.5 | 0.5 | CCCN1C[C@H](C)[C@@H](O)[C@](C)(O)[C@@H](CC)OC(=O)[C@H](C)[C@@H](O[C@H]2C[C@@](C)(OC)[C@](O)(CNCCCCl)[C@H](C)O2)[C@H](C)[C@@H](O[C@@H]2O[C@H](C)C[C@H](N(C)C)[C@H]2O)[C@](C)(O)C[C@H]1C [syzx-175] |
| 0.25 | 0.5 | 0.25 | 2 | 0.5 | CCCN1C[C@H](C)[C@@H](O)[C@](C)(O)[C@@H](CC)OC(=O)[C@H](C)[C@@H](O[C@H]2C[C@@](C)(OC)[C@](O)(CNc3cc(OC)cc(OC)c3)[C@H](C)O2)[C@H](C)[C@@H](O[C@@H]2O[C@H](C)C[C@H](N(C)C)[C@H]2O)[C@](C)(O)C[C@H]1C [syzx-176] |
| 0.5 | 4 | 2 | 4 | 4 | CCCN1C[C@H](C)[C@@H](O)[C@](C)(O)[C@@H](CC)OC(=O)[C@H](C)[C@@H](O[C@H]2C[C@@](C)(OC)[C@](O)(CNc3ccc(C)o3)[C@H](C)O2)[C@H](C)[C@@H](O[C@@H]2O[C@H](C)C[C@H](N(C)C)[C@H]2O)[C@](C)(O)C[C@H]1C [syzx-178] |
| 0.25 | 0.25 | 0.5 | 1 | 0.25 | CCCN1CC(C)C(O)C(C)(O)C(CC)OC(=O)C(C)C(OC2CC(C)(OC)C(O)(CNNc3ccc(F)cc3)C(C)O2)C(C)C(OC2OC(C)CC(N(C)C)C2O)C(C)(O)CC1C (stereo not drawn) [syzx-181] |
| 0.5 | 0.5 | 0.5 | 4 | 1 | CCCN1C[C@H](C)[C@@H](O)[C@](C)(O)[C@@H](CC)OC(=O)[C@H](C)[C@@H](O[C@H]2C[C@@](C)(OC)[C@](O)(CNOCc3ccccc3)[C@H](C)O2)[C@H](C)[C@@H](O[C@@H]2O[C@H](C)C[C@H](N(C)C)[C@H]2O)[C@](C)(O)C[C@H]1C [syzx-182] |
| 0.25 | 0.25 | 0.5 | 2 | 0.25 | CCCN1C[C@H](C)[C@@H](O)[C@](C)(O)[C@@H](CC)OC(=O)[C@H](C)[C@@H](O[C@H]2C[C@@](C)(OC)[C@](O)(CNc3ccc(OC)cc3)[C@H](C)O2)[C@H](C)[C@@H](O[C@@H]2O[C@H](C)C[C@H](N(C)C)[C@H]2O)[C@](C)(O)C[C@H]1C [syzx-183] |
| 0.5 | 2 | 2 | 4 | 2 | CCCN1C[C@H](C)[C@@H](O)[C@](C)(O)[C@@H](CC)OC(=O)[C@H](C)[C@@H](O[C@H]2C[C@@](C)(OC)[C@](O)(CNc3ccc(C)c(C)c3)[C@H](C)O2)[C@H](C)[C@@H](O[C@@H]2O[C@H](C)C[C@H](N(C)C)[C@H]2O)[C@](C)(O)C[C@H]1C [syzx-184] |
